Results reported in patent US9023998B2, “Near infrared fluorogen and fluorescent activating proteins for in vivo imaging and live-cell biosensing” (Carnegie Mellon University, priority 2013, dated 2015).

Assays:
mL9.5 (SEQ. ID. NO. 21) = experiment: Fluorogen activation by purified monomeric FAP mL9.5 (spectra); format: biochemical; details: purified protein, about 300 nM fluorogen, PBS pH 7.4
Text: While the peptide linker that joins the VL units in dL9.2 (SEQ. ID. NO. 2) and dL9.5 (SEQ. ID. NO. 3) enhance fluorogen binding affinity and binding rate by reducing the entropic cost of assembly around the fluorogen, the linker is not strictly necessary for fluorogenic activation. […] In panels C and D, corresponding spectra from mL9.5:SKC602 (SEQ. ID. NO. 21:SKC602) and mL9.5:SKC728 (SEQ. ID. NO. 21:SKC728) fluoromodules are shown. Spectra were obtained using a Quantamaster™ fluorometer (PTI) equipped with dual monochromators on both excitation and emission light paths.
To facilitate ligase-dependent cloning methods, the above procedure was repeated for dL9.5 (SEQ. ID. NO. 6), using otherwise identical primers that appended BspEI (TCCGGA) (SEQ. ID. NO. 25) and BamHI (GGATCC) (SEQ. ID. NO. 26) sites directly at the 5′ and 3′ termini, respectively, of the dL9.5 gene (SEQ. ID. NO. 6). The resulting plasmid, designated pPNL9z-dL9.5, could be digested with BspEI (SEQ. ID. NO. 25) and BamHI (SEQ. ID. NO. 26) to produce a yeast expression vector backbone capable of receiving inserts with like-digested termini. […]

[1] = tested on: HEK293 cells expressing dL9.5; experiment: Confocal imaging of HEK293 cells expressing dL9.5 in various cellular contexts; format: cell-based; details: HEK293; SKC728 100 nM, SKC602 50 nM
Text: The expressed construct was imaged using an Andor Revolution XD spinning disk confocal (GFP 488:525/50, dL9.5 (SEQ. ID. NO. 3) 640:685/70 AND 640:794/160, 60×1.49 NA oil immersion objective) and the results are shown in FIG. 5. […] The fluorogen was not washed away prior to imaging.
Imaging conditions were similar to those described for obtaining FIG. 5.
CYTOPLASM. HEK293 cells were transfected with, and stably expressing the pCYdL9.5eGFP vector, were thawed from a cryostock and maintained in DMEM/10% FBS for four passages prior to fluorescence imaging procedures. Immediately prior to imaging, growth media was exchanged for HBSS (pH 7.4) supplemented with SKC602 (200 nM final concentration). The cells were allowed to recover at 37° C. with 5% CO2 for 20-30 minutes, and fluoromodule activity under in vivo conditions within the cytoplasm was imaged using an Andor Revolution XD spinning disk confocal microscope (60×1.49 NA oil immersion objective, excitation at 640 nm, emission in far-red: 685/70 filter, and NIR: 794/160 filter). The same cells were also imaged for eGFP activity (excitation at 488 nm, emission via 525/50 nm filter). […] In accordance with the fluoromodule emission spectrum shown in FIG. 2, this emission filter allows the microscope camera to detect a large portion of the fluoromodule emission, and consequently, the observed signal appears brighter. One must note that intensities cannot be directly compared between channels, due to considerations non-exclusively including: differences in excitation light intensities, exposure and capture times, the transmission profile of each emission filter, and the quantum efficiency of the iXON3 DU897 (back-illuminated) camera across the range of emitted wavelengths. An evenly distributed fluorescence signal is observed in these cells, with no bright foci that would indicate protein aggregation, and the fluoromodule signal intensity scales with that of eGFP.
PLASMA MEMBRANE. […]

Structure (SMILES) | Induction of NIR fluorescence by mL9.5 (mL9.5 (SEQ. ID. NO. 21)) | Membrane permeance shown by subcellular labeling (plasma membrane exterior / mitochondrial matrix) [1]
CN(C)c1ccc(C(/C=C/c2ccc(N(C)CCCCC(=O)NC(CCS(=O)(=O)O)C(=O)O)cc2)=C2C=CC(=[N+](C)C)C=C2)cc1 (stereo not shown) [SKC728] | induce NIR fluorescence | membrane impermeant
CN(C)c1ccc(/C=C/C(=C2C=CC(=[N+](C)C)C=C2)c2ccc(N(C)C)cc2)cc1 [SKC602, (E)-N-(4-(1,3-bis(4-(dimethylamino)phenyl)allylidene)cyclohexa-2,5-dien-1-ylidene)-N-methylmethanaminium] | induce NIR fluorescence | membrane permeant
